This note sets out measurements from patent publication US20240381871A1, “5-HALOALKOXY-PYRIMIDINE COMPOUNDS AS HERBICIDES” (SYNGENTA CROP PROTECTION AG, priority 2020, published 2024).

SMILES strings stand for the structures.

What all share (type): in vivo
For experiment [1], the system named is Ipomea hederacea (IPOHE). Description: Comparative post-emergence test, weed control. Conditions: Ipomoea hederacea, 336 h, after 14 days, read-out: IPOHE damage (100=total damage to plant; 0=no damage). On the procedure: (§1) Seeds of test species were sown in standard soil in pots. After cultivation for 10 days (post-emergence) under controlled conditions in a glasshouse (at 24/16° C., day/night; 14 hours light; 65% humidity), the plants were sprayed with an aqueous spray solution derived from the formulation of the technical active ingredient in 0.6 ml acetone and 45 ml formulation solution containing 10.6% Emulsogen EL (Registry number 61791-12-6), 42.2% N-methyl pyrrolidone, 42.2% dipropylene glycol monomethyl ether (CAS RN 34590-94-8) and 0.2% X-77 (CAS RN 11097-66-8). The test plants were then grown in a glasshouse under controlled conditions in a glasshouse (at 24/16° C., day/night; 14 hours light; 65% humidity) and watered twice daily. After 14 days, the test was evaluated (100=total damage to plant; 0=no damage to plant). • Weeds: Ipomea hederacea (IPOHE) • Crops: Zea mays (ZEAMX)

Experiment [2] deals with Echinochloa crus-galli (ECHCG). Briefly: Post-emergence herbicidal glasshouse test. Conditions: rate 250, evaluated after 13 days, the values are: phytotoxicity score (1-5 scale). How it is done: (§2) Seeds of a variety of test species are sown in standard soil in pots, Amaranthus retoflexus (AMARE), Abutilon theophrasti (ABUTH), Setaria faberi (SETFA), Echinochloa crus-galli (ECHCG) and Ipomoea hederacea (IPOHE). After cultivation for one day (pre-emergence) or after 8 days cultivation (post-emergence) under controlled conditions in a glasshouse (at 24/16° C., day/night; 14 hours light; 65% humidity), the plants are sprayed with an aqueous spray solution derived from the formulation of the technical active ingredient in acetone/water (50:50) solution containing 0.5% Tween 20 (polyoxyethelyene sorbitan monolaurate, CAS RN 9005-64-5). Compounds are applied at 1000 g/ha unless otherwise stated. The test plants are then grown in a glasshouse under controlled conditions in a glasshouse (at 24/16° C., day/night; 14 hours light; 65% humidity) and watered twice daily. After 13 days for pre and post-emergence, the test is evaluated for the percentage damage caused to the plant.

The test system of experiment [3] is Ipomoea hederacea (IPOHE). Description: Post-emergence herbicidal glasshouse test. To be noted: rate 250, evaluated after 13 days, the values are: phytotoxicity score (1-5 scale). How it is done: as §2
Experiment [4] concerns Abutilon theophrasti (ABUTH). Briefly: Post-emergence herbicidal glasshouse test. Conditions: rate 250, evaluated after 13 days, the values are:
On the procedure: as §2

Experiment [5] relates to Amaranthus retoflexus (AMARE). Briefly: Post-emergence herbicidal glasshouse test. To be noted: rate 250, evaluated after 13 days, the values are: phytotoxicity score (1-5 scale). How it is done:
as §2

Experiment [6] deals with Setaria faberi (SETFA). Briefly: Post-emergence herbicidal glasshouse test. To be noted: rate 250, evaluated after 13 days, the values are:
How it is done:
as §2

Experiment [7] deals with Echinochloa crus-galli (ECHCG). Description: Pre-emergence herbicidal glasshouse test. Conditions: rate 250, evaluated after 13 days, the values are: phytotoxicity score (1-5). How it is done:
as §2

In experiment [8] the test system is Ipomoea hederacea (IPOHE). Briefly: Pre-emergence herbicidal glasshouse test. To be noted: rate 250, evaluated after 13 days, the values are:
On the procedure: as §2

Experiment [9] relates to Abutilon theophrasti (ABUTH). Briefly: Pre-emergence herbicidal glasshouse test. Conditions: rate 250, evaluated after 13 days, the values are:
How it is done:
as §2

For experiment [10], the system named is Amaranthus retoflexus (AMARE). Briefly: Pre-emergence herbicidal glasshouse test. To be noted: rate 250, evaluated after 13 days, the values are:
How it is done:
as §2

Experiment [11] relates to Setaria faberi (SETFA). Briefly: Pre-emergence herbicidal glasshouse test. To be noted: rate 250, evaluated after 13 days, the values are: phytotoxicity score (1-5). How it is done:
as §2

Experiment [12] deals with Zea mays (ZEAMX). Description: Comparative post-emergence test, crop damage. To be noted: 336 h, after 14 days, read-out: ZEAMX damage (100=total damage to plant; 0=no damage). On the procedure:
as §1

In the case of `FC(F)Oc1cnc(Oc2ccccc2-c2cc(C(F)F)no2)nc1` [Compound 1.003], in experiment [1], the pest or weed control at 2 g/ha was 10%, the pest or weed control at 8 g/ha stood at 20%, the pest or weed control at 60 g/ha was 30% and the pest or weed control at 125 g/ha is 70%. Moreover, in experiment [1], the pest or weed control at 250 g/ha worked out at 70% and the pest or weed control at 500 g/ha amounted to 90%. In experiment [2], this compound yielded a Post-emergence activity ECHCG (% phytotoxicity) of 3. In addition, the Post-emergence activity IPOHE (% phytotoxicity) in experiment [3] amounted to 4. In addition, the Post-emergence activity ABUTH (% phytotoxicity) in experiment [4] worked out at 4. In experiment [5], the Post-emergence activity AMARE (% phytotoxicity) stood at 4. The compound also gave a Post-emergence activity SETFA (% phytotoxicity) in experiment [6] of 3. In experiment [7], this compound had a Pre-emergence activity ECHCG (% phytotoxicity) of 2. For the same compound, the Pre-emergence activity IPOHE (% phytotoxicity) in experiment [8] worked out at 3. The compound further came in with a Pre-emergence activity ABUTH (% phytotoxicity) in [9] of 4. In addition, the Pre-emergence activity AMARE (% phytotoxicity) in [10] stood at 5. This compound came in with a Pre-emergence activity SETFA (% phytotoxicity) in [11] of 4. For the same compound, in experiment [12], the plant injury at 2 g/ha amounted to 0%, the plant injury at 8 g/ha is 0%, the plant injury at 60 g/ha came to 0% and the plant injury at 125 g/ha was determined as 0%. Further, in [12], the plant injury at 250 g/ha came out at 0% and the plant injury at 500 g/ha was determined as 10%.
Take `FC(F)Oc1cnc(Oc2cccc(Cl)c2-c2cc(C(F)F)no2)nc1` [Compound 1.004]: in experiment [1], the pest or weed control at 2 g/ha worked out at 20%, the pest or weed control at 8 g/ha was 50%, the pest or weed control at 60 g/ha was 70% and the pest or weed control at 125 g/ha stood at 70%. Moreover, in [1], the pest or weed control at 250 g/ha amounted to 90% and the pest or weed control at 500 g/ha was 90%. This compound also displayed a Post-emergence activity ECHCG (% phytotoxicity) in experiment [2] of 4. The same compound gave a Post-emergence activity IPOHE (% phytotoxicity) in experiment [3] of 4. The compound further came in with a Post-emergence activity ABUTH (% phytotoxicity) in experiment [4] of 4. Besides, the Post-emergence activity AMARE (% phytotoxicity) in experiment [5] turned out to be 4. For the same compound, the Post-emergence activity SETFA (% phytotoxicity) in experiment [6] was determined as 4. Also, the Pre-emergence activity ECHCG (% phytotoxicity) in experiment [7] turned out to be 4. Also, the Pre-emergence activity IPOHE (% phytotoxicity) in [8] came to 5. Also, in experiment [9], the Pre-emergence activity ABUTH (% phytotoxicity) was found to be 4. The compound also showed a Pre-emergence activity AMARE (% phytotoxicity) in experiment [10] of 5. Besides, the Pre-emergence activity SETFA (% phytotoxicity) in experiment [11] worked out at 5. In experiment [12], the plant injury at 2 g/ha came out at 0%, the plant injury at 8 g/ha amounted to 0%, the plant injury at 60 g/ha is 0% and the plant injury at 125 g/ha came to 10%. In addition, in experiment [12], the plant injury at 250 g/ha is 20% and the plant injury at 500 g/ha was determined as 40%.
`FC(F)Oc1cnc(Oc2cccc(Br)c2-c2cc(C(F)F)no2)nc1` [Compound 1.005]: in experiment [1], the pest or weed control at 2 g/ha came to 30%, the pest or weed control at 8 g/ha came to 20%, the pest or weed control at 60 g/ha came out at 40% and the pest or weed control at 125 g/ha is 70%. For the same compound, in experiment [1], the pest or weed control at 250 g/ha was 90% and the pest or weed control at 500 g/ha amounted to 80%. For the same compound, the Post-emergence activity ECHCG (% phytotoxicity) in [2] came to 3. In experiment [3], the Post-emergence activity IPOHE (% phytotoxicity) is 5. In addition, the Post-emergence activity ABUTH (% phytotoxicity) in [4] turned out to be 4. In experiment [5], this compound returned a Post-emergence activity AMARE (% phytotoxicity) of 4. In experiment [6], the Post-emergence activity SETFA (% phytotoxicity) was 4. In experiment [7], this compound yielded a Pre-emergence activity ECHCG (% phytotoxicity) of 3. The compound further gave a Pre-emergence activity IPOHE (% phytotoxicity) in experiment [8] of 4. In experiment [9], the Pre-emergence activity ABUTH (% phytotoxicity) is 3. Also, the Pre-emergence activity AMARE (% phytotoxicity) in [10] turned out to be 5. This compound also had a Pre-emergence activity SETFA (% phytotoxicity) in [11] of 5. Also, in [12], the plant injury at 60 g/ha amounted to 10%, the plant injury at 125 g/ha turned out to be 20%, the plant injury at 250 g/ha stood at 30% and the plant injury at 500 g/ha was found to be 30%.
`N#Cc1cccc(Oc2ncc(OC(F)F)cn2)c1CCCC(F)(F)F` [Compound 1.025] showed a Post-emergence activity ECHCG (% phytotoxicity) in [2] of 1. In addition, the Post-emergence activity IPOHE (% phytotoxicity) in [3] amounted to 1. Moreover, in experiment [4], the Post-emergence activity ABUTH (% phytotoxicity) is 1. In experiment [5], this compound returned a Post-emergence activity AMARE (% phytotoxicity) of 2. In experiment [6], this compound had a Post-emergence activity SETFA (% phytotoxicity) of 1. This compound also had a Pre-emergence activity ECHCG (% phytotoxicity) in [7] of 1. This compound also showed a Pre-emergence activity IPOHE (% phytotoxicity) in [8] of 1. In experiment [9], this compound gave a Pre-emergence activity ABUTH (% phytotoxicity) of 1. Besides, the Pre-emergence activity AMARE (% phytotoxicity) in experiment [10] came out at 1. Moreover, in [11], the Pre-emergence activity SETFA (% phytotoxicity) worked out at 1.
Turning to `O=C(CCC(F)(F)F)c1c(Cl)cccc1Oc1ncc(OC(F)F)cn1` [Compound 1.027, 1-[2-chloro-6-[5-(difluoromethoxy)pyrimidin-2-yl]oxy-phenyl]-4,4,4-trifluoro-butan-1-one], the Post-emergence activity ECHCG (% phytotoxicity) in [2] came to 1. In addition, the Post-emergence activity IPOHE (% phytotoxicity) in experiment [3] is 3. In experiment [4], this compound displayed a Post-emergence activity ABUTH (% phytotoxicity) of 3. Also, in experiment [5], the Post-emergence activity AMARE (% phytotoxicity) is 4. For the same compound, the Post-emergence activity SETFA (% phytotoxicity) in experiment [6] came out at 1. The same compound returned a Pre-emergence activity ECHCG (% phytotoxicity) in experiment [7] of 2. Besides, the Pre-emergence activity IPOHE (% phytotoxicity) in [8] was 1. In addition, in experiment [9], the Pre-emergence activity ABUTH (% phytotoxicity) came out at 3. Besides, in [10], the Pre-emergence activity AMARE (% phytotoxicity) came to 4. The compound also displayed a Pre-emergence activity SETFA (% phytotoxicity) in experiment [11] of 4.
For `O=C(CCC(F)(F)F)c1c(Br)cccc1Oc1ncc(OC(F)F)cn1` [Compound 1.028], the Post-emergence activity ECHCG (% phytotoxicity) in experiment [2] worked out at 1. This compound also registered a Post-emergence activity IPOHE (% phytotoxicity) in [3] of 2. The compound further came in with a Post-emergence activity ABUTH (% phytotoxicity) in [4] of 2. This compound registered a Post-emergence activity AMARE (% phytotoxicity) in experiment [5] of 5. This compound displayed a Post-emergence activity SETFA (% phytotoxicity) in experiment [6] of 1. The compound also yielded a Pre-emergence activity ECHCG (% phytotoxicity) in [7] of 1. In experiment [8], this compound returned a Pre-emergence activity IPOHE (% phytotoxicity) of 1. The compound further gave a Pre-emergence activity ABUTH (% phytotoxicity) in experiment [9] of 2. Moreover, the Pre-emergence activity AMARE (% phytotoxicity) in experiment [10] is 5. Besides, in [11], the Pre-emergence activity SETFA (% phytotoxicity) turned out to be 5.
